Data set [1] has as its system PSN1 cancer cells. Kind of data set: In vitro dose schedule with gemcitabine, MTS cell viability, Bliss synergy analysis. It counts as cell-based, human. On the procedure: Cell viability was measured by MTS assay at 96 hours and the data subjected to a statistical Bliss analysis using MacSynergy II software to quantitate synergy as a log volume.
Cell viability was measured by MTS assay (96 hours) and the data subjected to a statistical Bliss analysis. Compound A-2 synergized with gemcitabine when administered at the start of gemcitabine treatment. […] The strong schedule dependence is attributed to an accumulation of cells in S phase, and concomitant increase in ATR activity (measured by P-Chk1) that occurs in response to gemcitabine treatment alone.

Data set [2] in a line: Phase I trial, combination with gemcitabine and cisplatin: DLTs. The class given is in vivo, human.

Molecules are shown by their SMILES.

For `CNCc1ccc(-c2cc(-c3nc(-c4ccc(S(=O)(=O)C(C)C)cc4)cnc3N)on2)cc1` [Compound A-2], the “Synergy with gemcitabine (Bliss analysis of cell viability)” value is given as “synergized” in data set [1] (Compound A-2 2 hour exposure at the start of 24 hour gemcitabine treatment, MTS at 96 hours); “maximal” in data set [1] (Compound A-2 administered 24 hours after starting gemcitabine treatment); “No synergy” in data set [1] (Compound A-2 administered 48 hours or later after gemcitabine treatment was started). Besides, the “No. of Patients with DLTs” value is recorded as 1 (thrombocytopenia/ in data set [2] (Cohort 11: Compound A-2 90 + Gemcitabine 875 + Cisplatin 60 mg/m^2, 6/6, thrombocytopenia/neutropenia) and 2 (febrile neutropenia/ in data set [2] (Cohort 12: Compound A-2 120 + Gemcitabine 875 + Cisplatin 60 mg/m^2, 2/2, febrile neutropenia/thrombocytopenia, hypoxia/neutropenia).

The record behind these values is patent publication US20230106592A1, “METHOD FOR TREATING CANCER USING A COMBINATION OF DNA DAMAGING AGENTS AND ATR INHIBITORS” (Vertex Pharmaceuticals Incorporated, priority 2015, published 2023).
